Data reported in PMC11939996 (Biomolecules, 2025).

Key:
Aβ40 fibrillation = assay: Transmission electron microscopy of Aβ40 fibrils; parameters: species or system human; conditions: 20 μM Aβ40 alone or with 4 μM S100A8 or S100A9, after ThT assay (30 °C, pH 7.4)
Procedure: A 300-mesh copper grid coated with a 0.2% formvar film was placed onto a 10 µL drop of the sample. After allowing the sample (after the ThT fluorescence assay) to adsorb for 10 min, the grid was negatively stained for 2 min using a 1% (w/v) aqueous solution of uranyl acetate. Excess staining solution was removed with filter paper, followed by a 1 min rinse in deionized water. The samples were examined using a JEM-1400Plus (HC) transmission electron microscope (JEOL, Ltd., Tokyo, Japan) operated at 80 keV.

[1] = target: Toll-like receptor 4 (Homo sapiens) (UniProt O00206); conditions: cited from earlier work
monomeric Aβ42 = assay: Bio-layer interferometry, analyte binding to immobilized monomeric Aβ42; parameters: species or system human; conditions: for ka × 10^−2: association, bivalent analyte model, number is ka multiplied by 10^−2, 25 °C, pH 7.4, 2.5 mM CaCl2, mean ± SD, n = 3–4
Procedure: (§1) Next, 96-well microplates with analyte solutions were kept at 25 °C and shaken at 1000 rpm. The Aβ samples were pretreated with neat TFA, followed by dissolution in DMSO as described in ref. [61, 66]. […] The rest of the activated amine groups on the sensor were blocked by 1 M ethanolamine solution. […] The sensor surface was regenerated by the passage of 0.5% SDS water solution for 30 s.
(§2) The direct interaction of S100 proteins with monomeric Aβ was studied by biolayer interferometry in the buffer conditions mimicking the physiological conditions (20 mM Tris-HCl, 140 mM NaCl, 4.9 mM KCl, 2.5 mM CaCl2, 1 mM MgCl2, pH 7.4).
(§3) Since the S100 proteins are predominantly dimeric, their BLI sensograms were described within the bivalent analyte model (1), taking into account that the dimer concentration is half of the monomer concentration.

HSA–Aβ40 interaction = assay: BLI competition: HSA interaction with monomeric Aβ40 in presence of S100A8/S100A9; assay type: binding, human; conditions: 67 µM HSA with 12 µM S100A8 or 7 µM S100A9; 25 °C, pH 7.4, 2.5 mM CaCl2
Procedure: (§4) Next, 96-well microplates with analyte solutions were kept at 25 °C and shaken at 1000 rpm. The Aβ samples were pretreated with neat TFA, followed by dissolution in DMSO as described in ref. [61, 66]. The pretreated ligand (5 μg/mL Aβ40/Aβ42 in 10 mM sodium acetate, pH 4.5 buffer) was immobilized onto Octet® AR2G biosensor (Sartorius AG, Göttingen, Germany) by amine coupling using EDAC/sulfo-NHS to achieve the loading level of 3.5 nm. The rest of the activated amine groups on the sensor were blocked by 1 M ethanolamine solution. The noncovalently bound ligand molecules were washed off the sensor with a 0.5% SDS water solution, followed by passage of the assay buffer (20 mM Tris-HCl, 140 mM NaCl, 4.9 mM KCl, 2.5 mM CaCl2, 1 mM MgCl2, pH 7.4), resulting in the loading level of 1.5 nm. […] The sensor surface was regenerated by the passage of 0.5% SDS water solution for 30 s.

HSA–Aβ42 interaction = assay: BLI competition: HSA interaction with monomeric Aβ42 in presence of S100A8/S100A9; assay type: binding, human; conditions: 67 µM HSA with 12 µM S100A8 or 7 µM S100A9; 25 °C, pH 7.4, 2.5 mM CaCl2
Procedure: as §4

Aβ40/Aβ42 = assay: Chemical cross-linking with glutaraldehyde, SDS-PAGE; assay type: binding, human; conditions: faint band; 0.02% glutaraldehyde, 37 °C, 1 h, 25–75 μM S100A8, 20 μM Aβ40/Aβ42, pH 7.4
Procedure: The protein solution was incubated at 25 °C for 30 min prior to the cross-linking.

Toll-like receptor 4 = conditions: in the presence of Ca^2+ and Zn^2+; cited from earlier work
[2] = target: RAGE V domain (Homo sapiens) (UniProt Q15109); conditions: cited from earlier work
monomeric Aβ40 = assay: Bio-layer interferometry, analyte binding to immobilized monomeric Aβ40; parameters: species or system human; conditions: association; bivalent analyte model; number is ka multiplied by 10^−2; 25 °C, pH 7.4, 2.5 mM CaCl2; mean ± SD, n = 3–4
Procedure: as §1, §2, §3

RAGE V domain = conditions: cited from earlier work
Aβ40 = conditions: cited from earlier work
From the text: Another component colocalized with senile plaques and associated with AD are specific members of the S100 protein family (reviewed in ref. [36]). The S100 family contains over two dozen small (9–13 kDa) multifunctional Ca^2+-binding proteins of the EF-hand superfamily, defined by the presence of the EF-hand motif, which coordinates a calcium ion through a loop located between two α-helices. Some S100 proteins affect cognitive processes, neuronal development and maintenance, APP processing, Aβ levels, the formation of amyloid plaques, post-translational modif ...

S100A9, sequence (P06702 whole entry): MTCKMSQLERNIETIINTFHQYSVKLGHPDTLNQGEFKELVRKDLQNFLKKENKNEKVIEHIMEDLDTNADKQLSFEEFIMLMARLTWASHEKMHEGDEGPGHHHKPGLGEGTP
Toll-like receptor 4 (Homo sapiens), sequence (O00206 24-839): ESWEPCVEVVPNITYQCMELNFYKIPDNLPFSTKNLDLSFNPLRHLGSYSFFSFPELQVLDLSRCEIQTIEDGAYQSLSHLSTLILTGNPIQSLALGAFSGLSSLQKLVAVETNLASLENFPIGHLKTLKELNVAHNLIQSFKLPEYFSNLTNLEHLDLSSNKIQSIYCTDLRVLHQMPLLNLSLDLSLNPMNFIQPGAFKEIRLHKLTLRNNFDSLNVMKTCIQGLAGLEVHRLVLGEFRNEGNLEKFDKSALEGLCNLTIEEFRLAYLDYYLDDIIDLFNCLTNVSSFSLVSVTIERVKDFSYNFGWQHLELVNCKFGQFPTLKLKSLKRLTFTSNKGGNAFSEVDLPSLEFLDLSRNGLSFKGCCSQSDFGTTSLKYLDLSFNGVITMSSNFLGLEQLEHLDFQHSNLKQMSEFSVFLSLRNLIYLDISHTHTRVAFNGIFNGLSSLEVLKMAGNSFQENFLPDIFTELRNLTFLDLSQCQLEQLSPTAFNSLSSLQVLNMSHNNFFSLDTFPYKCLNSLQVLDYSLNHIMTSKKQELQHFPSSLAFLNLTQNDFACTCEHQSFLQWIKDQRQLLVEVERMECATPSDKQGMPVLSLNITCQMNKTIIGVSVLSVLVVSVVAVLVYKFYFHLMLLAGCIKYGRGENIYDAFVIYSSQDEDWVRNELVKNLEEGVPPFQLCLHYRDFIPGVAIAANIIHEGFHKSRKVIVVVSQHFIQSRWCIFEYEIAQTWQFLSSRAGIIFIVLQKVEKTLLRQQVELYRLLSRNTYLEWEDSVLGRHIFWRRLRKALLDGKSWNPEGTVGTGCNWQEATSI
RAGE V domain (Homo sapiens), sequence (Q15109 23-116): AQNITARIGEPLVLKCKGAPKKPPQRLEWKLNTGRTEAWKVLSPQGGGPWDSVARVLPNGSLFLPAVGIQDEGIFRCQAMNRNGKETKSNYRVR

In the case of “Aβ40: Recombinant human amyloid-β peptide, 40 residues, prepared in E. coli”, the “fibril morphology by TEM” value (Aβ40 fibrillation) is reported as “dense clusters of the intertwined mature fibrils reaching microns in length”.
In the case of S100A8 (from UniProt P05109), the Kd [1] is listed as 1000 nM.
For “S100A8: Recombinant human S100A8 prepared in E. coli; pro-inflammatory EF-hand Ca2+-binding protein”, the “accelerated association with Aβ42 versus Aβ40” value (monomeric Aβ42; Aβ42 vs Aβ40) was 1.5 fold, the “slower dissociation from Aβ42 versus Aβ40” value (monomeric Aβ42; Aβ42 vs Aβ40) was 2.4 fold and the “ka × 10^−2” value (monomeric Aβ42) was 3.4 ± 0.9 M^−1s^−1. The “maximal BLI signal of HSA interaction with Aβ40” value (HSA–Aβ40 interaction) was “marked decline in the maximal BLI signal”, the “maximal BLI signal of HSA interaction with Aβ42” value (HSA–Aβ42 interaction) was “marked decline in the maximal BLI signal” and the “band of cross-linked complex of S100A8 and Aβ monomers” value (Aβ40/Aβ42) was “about 15 kDa”. For the same substance, the Kd (Toll-like receptor 4) was 1000 nM.
In the case of S100A9 (from UniProt P06702), the Kd [2] is given as 5500 nM.
For “S100A9: Recombinant human S100A9 prepared in E. coli; pro-inflammatory EF-hand Ca2+-binding protein”, the “ka × 10^−2” value (monomeric Aβ40) was 2.6 ± 1.0 M^−1s^−1, the “ka × 10^−2” value (monomeric Aβ42) was 4.5 ± 1.3 M^−1s^−1 and the “maximal BLI signal of HSA interaction with Aβ40” value (HSA–Aβ40 interaction) was “marked decline in the maximal BLI signal”. For the same substance, the “maximal BLI signal of HSA interaction with Aβ42” value (HSA–Aβ42 interaction) was “marked decline in the maximal BLI signal”, the Kd (RAGE V domain) was 5000 to 6000 nM and the “direct S100A9–Aβ40 interaction by NMR” value (Aβ40) was “direct S100A9–Aβ40 interaction”.
